Measurements from patent publication US7091026B2, “Artificial endonuclease” (University of Iowa Research Foundation, priority 2001, dated 2006).
Where no end group is shown, it is not given here.

Columns and labels:
[1] = tested on: supercoiled pBR322 plasmid DNA; assay: DNA gel shift assay (agarose gel electrophoresis); type: binding; settings: 5–25 μM ligand, in words
Description: DNA Gel Shift Assays. The affinity of EuP3, EuP2, and each free peptide for supercoiled plasmid DNA was examined by agarose gel electrophoresis. Plasmid (pBR322, New England Biolabs, Inc.) was incubated for 15 minutes at room temperature with increasing concentrations of each ligand (5–25 μM), prior to the addition of loading dye. Each lane contained 1 μg plasmid (50 μM base pairs) in 10 mM Tris buffer at pH 8.0.

[2] = target: P4a (34-residue synthetic chimeric peptide: alpha2 and alpha3 of engrailed, minus the last turn of alpha2 and the beta-turn, with calmodulin loop I); assay: measured dissociation constant, method not stated; self-association of the Eu-bound peptide

Kdim (dimerization constant) [2] | Molecule | gel shift / affinity for supercoiled plasmid DNA [1] | gel shift / affinity for supercoiled plasmid DNA ([1]; listed as free metal)
 | [Cl][Eu]([Cl])[Cl] [EuCl3] | not | not seen
> 300 µM | TERRRFDKDGNGYISAAELRHVKIWFQNKRAKIK (also: also used as Eu(III)-bound form (EuP4a)) |  | 
